In this experiment the target is P70S6K (T412E mutant) (Homo sapiens (Human), UniProt P23443, T412E). Put plainly: P70S6K enzyme assay. The following applies: 3 nM P70S6K T412E mutant, 24 μM ATP, 1 μM FITC-AHA-AKRRRLSSLRA-OH substrate peptide, 90 min at 25° C. Type of experiment: biochemical. Put shortly: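 IC50s come from mobility-shift separation of phospho-product from FITC-AHA-AKRRRLSSLRA-OH substrate (1 μM) after the reaction was quenched with 10 mM EDTA. The reaction used 3 nM T412E-mutant enzyme and 24 μM ATP, running 90 min at 25° C in 100 mM Hepes pH 7.5 buffer.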
Chain of P70S6K (T412E mutant) (P23443 whole entry T412E): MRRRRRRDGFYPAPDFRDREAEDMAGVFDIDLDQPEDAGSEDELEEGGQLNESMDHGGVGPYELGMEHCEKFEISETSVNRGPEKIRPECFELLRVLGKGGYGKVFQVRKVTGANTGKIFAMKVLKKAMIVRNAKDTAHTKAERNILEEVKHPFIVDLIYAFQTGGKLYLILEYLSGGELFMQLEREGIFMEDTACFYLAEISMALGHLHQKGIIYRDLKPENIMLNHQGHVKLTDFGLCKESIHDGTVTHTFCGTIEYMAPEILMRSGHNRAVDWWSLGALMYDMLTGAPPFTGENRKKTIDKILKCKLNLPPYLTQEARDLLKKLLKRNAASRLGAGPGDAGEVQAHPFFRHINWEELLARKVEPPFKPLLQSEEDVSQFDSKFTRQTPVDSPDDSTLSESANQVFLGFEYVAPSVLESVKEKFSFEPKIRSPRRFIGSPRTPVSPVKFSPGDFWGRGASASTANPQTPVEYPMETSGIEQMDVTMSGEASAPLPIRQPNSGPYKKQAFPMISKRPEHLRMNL

As usually defined, the IC50 is the concentration at which inhibition is half-maximal. A high value points to weaker potency in that assay.

Turning to `Nc1ncnc(N2CCN(C(CN3CCC3)c3ccc(Cl)c(Cl)c3)CC2)c1-c1cn[nH]c1` (centres unmarked) [Example 131, 6-{4-[2-Azetidin-1-yl-1-(3,4-dichloro-phenyl)-ethyl]-piperazin-1-yl}-5-(1H-pyrazol-4-yl)-pyrimidin-4-ylamine], inhibition was half-maximal at 1500 nM (IC50).

As to `Nc1ncnc(N2CCN(C(CN3CCC3)c3ccc(Cl)c(C(F)(F)F)c3)CC2)c1-c1cn[nH]c1` (centres unmarked) [Example 132, 6-{4-[2-Azetidin-1-yl-1-(4-chloro-3-trifluoromethyl-phenyl)-ethyl]-piperazin-1-yl}-5-(1H-pyrazol-4-yl)-pyrimidin-4-ylamine], the IC50 came to 1400 nM. Consider `Nc1ncnc(N2CCN(C(CN3CCC3)c3ccc(Cl)c(Cl)c3)CC2)c1-c1ccc(N2CCNCC2)nc1` (centres unmarked) [Example 133, 6-{4-[2-Azetidin-1-yl-1-(3,4-dichloro-phenyl)-ethyl]-piperazin-1-yl}-5-(6-piperazin-1-yl-pyridin-3-yl)-pyrimidin-4-ylamine], for which the 50% inhibitory concentration (IC50) was over 100000 nM. To `Nc1ncnc(N2CCN(C(CN3CCC3)c3cccc(C(F)(F)F)c3Cl)CC2)c1-c1cn[nH]c1` (centres unmarked) [Example 134, 6-{4-[2-Azetidin-1-yl-1-(2-chloro-3-trifluoromethyl-phenyl)-ethyl]-piperazin-1-yl}-5-(1H-pyrazol-4-yl)-pyrimidin-4-ylamine] belongs 300 nM. To `Nc1ncnc(N2CCN(C(CN3CCC3)c3ccc(F)c(Cl)c3)CC2)c1-c1cn[nH]c1` (centres unmarked) [Example 135, 6-{4-[2-Azetidin-1-yl-1-(3-chloro-4-fluoro-phenyl)-ethyl]-piperazin-1-yl}-5-(1H-pyrazol-4-yl)-pyrimidin-4-ylamine] belongs 3600 nM; to `Nc1ncnc(N2CCN(C(CN3CCC3)c3ccc(F)cc3Cl)CC2)c1-c1cn[nH]c1` (centres unmarked) [Example 137, 6-{4-[2-Azetidin-1-yl-1-(2-chloro-4-fluoro-phenyl)-ethyl]-piperazin-1-yl}-5-(1H-pyrazol-4-yl)-pyrimidin-4-ylamine], 3100 nM; to `Nc1ncnc(N2CCC(C(O)c3ccc(Cl)cc3)CC2)c1-c1ccc(F)cc1` (centres unmarked) [Example 138], 2.5 nM. For `Nc1ncnc(N2CCC(C(O)c3ccc(-c4ccc(F)cc4)cc3)CC2)c1-c1ccc(F)cc1` (centres unmarked) [Example 139], 17 nM corresponded to half-maximal inhibition (IC50). As for `Nc1ncnc(N2CCC(C(O)c3ccc(F)cc3)CC2)c1-c1ccc(F)cc1` (centres unmarked) [Example 140], half-maximal inhibition (IC50) required 4.6 nM. The figure for `C=Cc1c(N)ncnc1N1CCC(C(O)c2ccc(F)cc2)CC1` (centres unmarked) [Example 141, 1-6-amino-5-(vinylpyrimidin-4-yl)piperidin-4-yl-4-(fluorophenyl)methanol] is 1000 nM; for `Nc1ncnc(N2CCC(C(NC3CCCC3)c3ccc(F)cc3)CC2)c1-c1ccc(F)cc1` (centres unmarked) [Example 145, 6-(4-((cyclopentylamino)(4-fluorophenyl)methyl)piperidin-1-yl)-5-(4-fluorophenyl)pyrimidin-4-amine] it is 120 nM; for `Nc1ncnc(N2CCC(C(OCCN3CCCC3)c3ccc(F)cc3)CC2)c1-c1ccc(F)cc1` (centres unmarked) [Example 146, 5-(4-fluoropheny)6-(4-((4-fluorophenyl)(2-(pyrrolidin-1-yl)ethoxy)methyl)-piperidin-1-yl)pyrimidin-4-amine] it is 11 nM.

Consider `CN(C)CCOC(c1ccc(F)cc1)C1CCN(c2ncnc(N)c2-c2ccc(F)cc2)CC1` (centres unmarked) [Example 147, 5-(4-fluorophenyl)6-(4-((4-fluorophenyl)(2-(dimethlyamino)ethoxy)methyl)piperidin-1-yl)pyrimidin-4-amine], for which the IC50 came out at 2 nM.

In turn, `Nc1ncnc(N2CCC(C(c3ccc(F)cc3)N3CCCC3)CC2)c1-c1ccc(F)cc1` (centres unmarked) [Example 148, 5-(4-fluoropheny)-6-(4-((4-fluorophenyl)(pyrrolidin-1-yl)methyl)piperidin-1-yl)pyrimidin-4-amine] gave an IC50 of 250 nM. To `Nc1ncnc(N2CCC(C(c3ccc(F)cc3)N3CCC(F)(F)C3)CC2)c1-c1ccc(F)cc1` (centres unmarked) [Example 149, 5-(4-fluoropheny)-6-(4-((4-fluorophenyl)(3-difluoropyrrolidin-1-yl)methyl)piperidin-1-yl)pyrimidin-4-amine] belongs 460 nM; to `CN(C)CCNC(c1ccc(F)cc1)C1CCN(c2ncnc(N)c2-c2ccc(F)cc2)CC1` (centres unmarked) [Example 150, 1-(6-amino-5-(4-fluorophenyl)pyrimidin-4-yl)(4-((4-fluorophenyl))methyl)-dimethylethane-1,2-diamine], 33 nM; to `Nc1ncnc(N2CCC(C(NCC3CCNCC3)c3ccc(F)cc3)CC2)c1-c1ccc(F)cc1` (centres unmarked) [Example 151], 200 nM.

On to `N#CC(c1cccc(C(F)(F)F)c1)N1CCN(c2ncnc(N)c2-c2ccc(F)cc2)CC1` (centres unmarked) [Example 152, {4-[6-Amino-5-(4-fluoro-phenyl)-pyrimidin-4-yl]-piperazin-1-yl}-(3-trifluoromethyl-phenyl)-acetonitrile], for which the 50% inhibitory concentration (IC50) is over 1000 nM. The figure for `NCC(c1cccc(C(F)(F)F)c1)N1CCN(c2ncnc(N)c2-c2ccc(F)cc2)CC1` (centres unmarked) [Example 153, 6-{4-[2-Amino-1-(3-trifluoromethyl-phenyl)-ethyl]-piperazin-1-yl}-5-(4-fluoro-phenyl)-pyrimidin-4-ylamine] is 11 nM. `N#CC(c1ccc(F)c(C(F)(F)F)c1)N1CCN(c2ncnc(N)c2-c2ccc(F)cc2)CC1` (centres unmarked) [Example 154, {4-[6-Amino-5-(4-fluoro-phenyl)-pyrimidin-4-yl]-piperazin-1-yl}-(4-fluoro-3-trifluoromethyl-phenyl)-acetonitrile] gave a half-inhibitory concentration (IC50) of over 1000 nM.

On to `NCC(c1ccc(F)c(C(F)(F)F)c1)N1CCN(c2ncnc(N)c2-c2ccc(F)cc2)CC1` (centres unmarked) [Example 155, 6-{4-[2-Amino-1-(4-fluoro-3-trifluoromethyl-phenyl)-ethyl]-piperazin-1-yl}-5-(4-fluoro-phenyl)-pyrimidin-4-ylamine], for which inhibition was half-maximal at 14 nM (IC50). To `N#CC(c1ccc(Cl)c(Cl)c1)N1CCN(c2ncnc(N)c2-c2ccc(F)cc2)CC1` (centres unmarked) [Example 156, {4-[6-Amino-5-(4-fluoro-phenyl)-pyrimidin-4-yl]-piperazin-1-yl}-(3,4-dichloro-phenyl)-acetonitrile] belongs 130 nM; to `NCC(c1ccc(Cl)c(Cl)c1)N1CCN(c2ncnc(N)c2-c2ccc(F)cc2)CC1` (centres unmarked) [Example 157, 6-{4-[2-Amino-1-(3,4-dichloro-phenyl)-ethyl]-piperazin-1-yl}-5-(4-fluoro-phenyl)-pyrimidin-4-ylamine], 6 nM; to `N#CC(c1ccc(F)cc1)N1CCN(c2ncnc(N)c2-c2ccc(F)cc2)CC1` (centres unmarked) [Example 158, {4-[6-Amino-5-(4-fluoro-phenyl)-pyrimidin-4-yl]-piperazin-1-yl}-(4-fluoro-phenyl)-acetonitrile], 240 nM. To `NCC(c1ccc(F)cc1)N1CCN(c2ncnc(N)c2-c2ccc(F)cc2)CC1` (centres unmarked) [Example 159, 6-{4-[2-Amino-1-(4-fluoro-phenyl)-ethyl]-piperazin-1-yl}-5-(4-fluoro-phenyl)-pyrimidin-4-ylamine] belongs 4.4 nM.

The compound `N#CC(c1ccc(F)c(Cl)c1)N1CCN(c2ncnc(N)c2-c2ccc(F)cc2)CC1` (centres unmarked) [Example 160, {4-[6-Amino-5-(4-fluoro-phenyl)-pyrimidin-4-yl]-piperazin-1-yl}-(3-chloro-4-fluoro-phenyl)-acetonitrile] had a concentration for half-maximal inhibition (IC50) of 590 nM. `NCC(c1ccc(F)c(Cl)c1)N1CCN(c2ncnc(N)c2-c2ccc(F)cc2)CC1` (centres unmarked) [Example 161, 6-{4-[2-Amino-1-(3-chloro-4-fluoro-phenyl)-ethyl]-piperazin-1-yl}-5-(4-fluoro-phenyl)-pyrimidin-4-ylamine]: the half-inhibitory concentration (IC50) came out at 4 nM. To `N#CC(c1ccc(Cl)cc1)N1CCN(c2ncnc(N)c2-c2ccc(F)cc2)CC1` (centres unmarked) [Example 162, {4-[6-Amino-5-(4-fluoro-phenyl)-pyrimidin-4-yl]-piperazin-1-yl}-(4-chloro-phenyl)-acetonitrile] belongs 68 nM; to `NCC(c1ccc(Cl)cc1)N1CCN(c2ncnc(N)c2-c2ccc(F)cc2)CC1` (centres unmarked) [Example 163, 6-{4-[2-Amino-1-(4-chloro-phenyl)-ethyl]-piperazin-1-yl}-5-(4-fluoro-phenyl)-pyrimidin-4-ylamine], 1.3 nM; to `N#CC(c1ccc(Cl)c(F)c1)N1CCN(c2ncnc(N)c2-c2ccc(F)cc2)CC1` (centres unmarked) [Example 164, {4-[6-Amino-5-(4-fluoro-phenyl)-pyrimidin-4-yl]-piperazin-1-yl}-(4-chloro-3-fluoro-phenyl)-acetonitrile], 44 nM.

Consider `NCC(c1ccc(Cl)c(F)c1)N1CCN(c2ncnc(N)c2-c2ccc(F)cc2)CC1` (centres unmarked) [Example 165, 6-{4-[2-Amino-1-(4-chloro-3-fluoro-phenyl)-ethyl]-piperazin-1-yl}-5-(4-fluoro-phenyl)-pyrimidin-4-ylamine], for which the IC50 stood at 0.9 nM. The figure for `N#CC(c1cccc(C(F)(F)F)c1)N1CCN(c2ncnc(N)c2Br)CC1` (centres unmarked) [Example 166, [4-(6-Amino-5-bromo-pyrimidin-4-yl)-piperazin-1-yl]-(3-trifluoromethyl-phenyl)-acetonitrile] is 6100 nM; for `N#CC(c1ccc(C(F)(F)F)cc1)N1CCN(c2ncnc(N)c2Br)CC1` (centres unmarked) [Example 167, [4-(6-Amino-5-bromo-pyrimidin-4-yl)-piperazin-1-yl]-(4-trifluoromethyl-phenyl)-acetonitrile] it is over 1000 nM; for `N#CC(c1ccc(C(F)(F)F)cc1)N1CCN(c2ncnc(N)c2-c2ccc(F)cc2)CC1` (centres unmarked) [Example 168, {4-[6-Amino-5-(4-fluoro-phenyl)-pyrimidin-4-yl]-piperazin-1-yl}-(4-trifluoromethyl-phenyl)-acetonitrile] it is 240 nM.

As for `NCC(c1cccc(F)c1)N1CCN(c2ncnc(N)c2-c2ccc(F)cc2)CC1` (centres unmarked) [Example 169, 6-{4-[2-Amino-1-(3-fluoro-phenyl)-ethyl]-piperazin-1-yl}-5-(4-fluoro-phenyl)-pyrimidin-4-ylamine], the IC50 turned out to be 4.1 nM.

Values taken from patent publication US9321760B2 (Merck Patent GmbH, priority 2011, dated 2016).
